From patent US11434242B2, “Dopamine-b-hydroxylase inhibitors” (BIAL-PORTELA & Cª, S.A., priority 2017, dated 2022)

Molecular target: T1, Dopamine beta hydroxylase (Homo sapiens, UniProt P09172)
T1 construct: 125 μl of plasma; tissue Instituto Português do Sangue Transplantação; host or cells: human plasma from healthy donors
T1 sequence (P09172 40-617 limits assumed): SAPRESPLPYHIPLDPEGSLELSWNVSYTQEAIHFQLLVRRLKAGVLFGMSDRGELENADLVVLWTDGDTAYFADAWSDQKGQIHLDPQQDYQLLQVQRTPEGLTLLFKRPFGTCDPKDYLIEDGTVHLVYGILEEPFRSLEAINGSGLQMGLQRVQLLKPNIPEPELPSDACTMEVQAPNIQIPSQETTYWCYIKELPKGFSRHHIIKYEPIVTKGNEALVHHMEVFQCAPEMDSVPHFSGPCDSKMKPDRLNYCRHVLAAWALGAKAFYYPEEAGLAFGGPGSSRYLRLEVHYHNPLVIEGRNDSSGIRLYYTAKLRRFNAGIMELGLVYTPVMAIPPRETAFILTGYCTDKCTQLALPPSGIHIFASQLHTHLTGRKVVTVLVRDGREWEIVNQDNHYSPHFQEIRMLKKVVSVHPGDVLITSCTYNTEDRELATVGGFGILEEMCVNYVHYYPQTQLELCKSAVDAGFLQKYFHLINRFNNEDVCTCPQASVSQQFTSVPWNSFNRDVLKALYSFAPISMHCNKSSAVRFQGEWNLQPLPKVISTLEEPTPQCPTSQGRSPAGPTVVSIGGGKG
Assay: Dopamine beta hydroxylase activity in human plasma
Type: biochemical
Conditions: for Plasma (0.01 μM), activity in % of control: inhibitor 0.01 μM; for Plasma (0.1 μM), activity in % of control: inhibitor 0.1 μM; for Plasma (1 μM), activity in % of control: inhibitor 1 μM
Method in brief: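 Healthy-donor human plasma pre-incubated 10 min at 37° C with compound at final 10, 100 or 1000 nM in pH 5.0 acetate buffer with ascorbate, fumarate, pargyline, N-ethylmaleimide, catalase and copper sulfate. Tyramine substrate then added for 45 min; octopamine formed was isolated by SCX cartridge, periodate-converted and read at 330 nm; activity given as % control.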

Plasma (0.01 μM), activity in % of control | Plasma (0.1 μM), activity in % of control | Plasma (1 μM), activity in % of control | Structure (SMILES)
98.2 % of control | 51.8 % of control | – | Cn1c(CC(=O)N2CCC[C@H]2C(F)(F)F)c2n(c1=S)C[C@@H](c1c(F)ccc(F)c1F)C2 [Example 248, 2-((R)-2-methyl-3-thioxo-6-(2,3,6-trifluorophenyl)-2,5,6,7-tetrahydro-3H-pyrrolo[1,2-c]imidazol-1-yl)-1-((S)-2-(trifluoromethyl)pyrrolidin-1-yl)ethan-1-one]
30.2 % of control | 1.7 % of control | – | Cn1c(CC(=O)NCc2ccc3c(c2)OCO3)c2n(c1=S)C[C@H](c1c(F)ccc(Cl)c1F)C2 [Example 291, (S)—N-(benzo[d][1,3]dioxol-5-ylmethyl)-2-(6-(3-chloro-2,6-difluorophenyl)-2-methyl-3-thioxo-2,5,6,7-tetrahydro-3H-pyrrolo[1,2-c]imidazol-1-yl)acetamide]
88.6 % of control | 53.1 % of control | – | CN1CCN(C(=O)Cc2c3n(c(=S)n2C)C[C@@H](c2c(F)c(F)cc(F)c2F)C3)CC1=O [Example 324, (R)-1-methyl-4-(2-(2-methyl-6-(2,3,5,6-tetrafluorophenyl)-3-thioxo-2,5,6,7-tetrahydro-3H-pyrrolo[1,2-c]imidazol-1-yl)acetyl)piperazin-2-one]
79.3 % of control | 62.6 % of control | – | O=C(Cc1[nH]c(=S)n2c1C[C@H](c1c(F)ccc(Br)c1F)C2)N1CCCC(O)C1 (stereo partly drawn) [Example 121, 2-((R)-6-(3-bromo-2,6-difluorophenyl)-3-thioxo-2,5,6,7-tetrahydro-3H-pyrrolo[1,2-c]imidazol-1-yl)-1-(3-hydroxypiperidin-1-yl)ethan-1-one]
– | 68.0 % of control | 13.9 % of control | O=C(O)Cc1[nH]c(=S)n2c1C[C@H](c1c(F)ccc(Br)c1F)C2 [Example 13, (R)-2-(6-(3-bromo-2,6-difluorophenyl)-3-thioxo-2,5,6,7-tetrahydro-3H-pyrrolo[1,2-c]imidazol-1-yl)acetic Acid]
99.9 % of control | 77.1 % of control | – | Fc1ccc(Br)c(F)c1[C@H]1Cc2c(CCN3CCC(F)(F)CC3)[nH]c(=S)n2C1 [Example 177, (R)-6-(3-bromo-2,6-difluorophenyl)-1-(2-(4,4-difluoropiperidin-1-yl)ethyl)-2,5,6,7-tetrahydro-3H-pyrrolo[1,2-c]imidazole-3-thione]
124.8 % of control | 81.4 % of control | – | O=C(Cc1[nH]c(=S)n2c1C[C@H](c1c(F)ccc(F)c1F)C2)N1CCOCC1 [Example 366, (R)-2-(6-(2,3,6-trifluorophenyl)-3-thioxo-2,5,6,7-tetrahydro-3H-pyrrolo[1,2-c]imidazol-1-yl)-1-morpholinoethan-1-one]
92.4 % of control | 44.8 % of control | – | Cn1c(CC(=O)N2CC[C@H](C#N)C2)c2n(c1=S)C[C@@H](c1c(F)ccc(F)c1F)C2 [Example 348, (S)-1-(2-((R)-2-methyl-3-thioxo-6-(2,3,6-trifluorophenyl)-2,5,6,7-tetrahydro-3H-pyrrolo[1,2-c]imidazol-1-yl)acetyl)pyrrolidine-3-carbonitrile]
56.8 % of control | 8.1 % of control | – | CN(C(=O)Cc1c2n(c(=S)n1C)C[C@H](c1c(F)ccc(Br)c1F)C2)C1COC1 [Example 454, (S)-2-(6-(3-bromo-2,6-difluorophenyl)-2-methyl-3-thioxo-2,5,6,7-tetrahydro-3H-pyrrolo[1,2-c]imidazol-1-yl)-N-methyl-N-(oxetan-3-yl)acetamide]

Further lines, the compound ahead of its results:

Structure (SMILES) | Plasma (0.01 μM), activity in % of control | Plasma (0.1 μM), activity in % of control | Plasma (1 μM), activity in % of control
O=C(Cc1[nH]c(=S)n2c1C[C@@H](c1c(F)ccc(Cl)c1F)C2)N[C@H]1CCOC1 [Example 404, 2-((S)-6-(3-chloro-2,6-difluorophenyl)-3-thioxo-2,5,6,7-tetrahydro-3H-pyrrolo[1,2-c]imidazol-1-yl)-N—((S)-tetrahydrofuran-3-yl)acetamide] | 78.7 % of control | 26.2 % of control | –
CNCCc1[nH]c(=S)n2c1C[C@@H](c1c(F)ccc(Cl)c1F)C2.Cl [Example 193, (S)-6-(3-chloro-2,6-difluorophenyl)-1-(2-(methylamino)ethyl)-2,5,6,7-tetrahydro-3H-pyrrolo[1,2-c]imidazole-3-thione Hydrochloride] | 86.0 % of control | 46.3 % of control | –
O=C(Cc1[nH]c(=S)n2c1[C@@H]1C[C@]1(c1cc(Br)ccc1F)C2)NCC(F)(F)F [Example 152, 2-((5aS,6aR)-5a-(5-bromo-2-fluorophenyl)-3-thioxo-2,3,5,5a,6,6a-hexahydrocyclopropa[3,4]pyrrolo[1,2-c]imidazol-1-yl)-N-(2,2,2-trifluoroethyl)acetamide] | 72.1 % of control | 17.8 % of control | –
O=C(Cc1[nH]c(=S)n2c1C[C@@H](c1c(F)ccc(Br)c1F)C2)NCc1cccnc1 [Example 124, (S)-2-(6-(3-bromo-2,6-difluorophenyl)-3-thioxo-2,5,6,7-tetrahydro-3H-pyrrolo[1,2-c]imidazol-1-yl)-N-(pyridin-3-ylmethyl)acetamide] | 42.8 % of control | 3.3 % of control | –
F.Fc1ccc(Br)cc1[C@]12C[C@H]1c1c(CCNC3CCC3)[nH]c(=S)n1C2 [Example 188, (5aS,6aR)-5a-(5-bromo-2-fluorophenyl)-1-(2-(cyclobutylamino)ethyl)-5,5a,6,6a-tetrahydrocyclopropa[3,4]pyrrolo[1,2-c]imidazole-3(2H)-thione hydrofluoride] | 60.9 % of control | 15.4 % of control | –
Cl.Fc1ccc(Cl)c(F)c1[C@@H]1Cc2c(CCN3CCOCC3)[nH]c(=S)n2C1 [Example 196, (S)-6-(3-chloro-2,6-difluorophenyl)-1-(2-morpholinoethyl)-2,5,6,7-tetrahydro-3H-pyrrolo[1,2-c]imidazole-3-thione Hydrochloride] | 102.2 % of control | 68.6 % of control | –
Cn1c(CC(=O)N[C@H]2CC[C@H](O)CC2)c2n(c1=S)C[C@@]1(c3cc(Cl)ccc3F)C[C@@H]21 [Example 355, 2-((5aS,6aR)-5a-(5-chloro-2-fluorophenyl)-2-methyl-3-thioxo-2,3,5,5a,6,6a-hexahydrocyclopropa[3,4]pyrrolo[1,2-c]imidazol-1-yl)-N-((1r,4R)-4-hydroxycyclohexyl)acetamide] | 56.4 % of control | 14.0 % of control | –
CCOC(=O)Cc1[nH]c(=S)n2c1C[C@H](c1cc(Cl)ccc1F)C2 [Example 64, Ethyl (R)-2-(6-(5-chloro-2-fluorophenyl)-3-thioxo-2,5,6,7-tetrahydro-3H-pyrrolo[1,2-c]imidazol-1-yl)acetate] | – | 88.4 % of control | 47.2 % of control
